Residue numbers refer to the chain shown, from its start. Where a SMILES comes first, the peptide text is derived from it.
How the values were obtained:
[1] = target: T1, hTAS1R2 + hTAS1R3 S729A^5.42 (Homo sapiens, UniProt Q7RTX0+Q8TE23, S729A); assay: Calcium response (FLIPR), hTAS1R3 mutant coexpressed with hTAS1R2; format: cell-based; conditions: variant S729A^5.42; for Emax: read-out: maximal signal (% of wt)
T1 construct: expressed in transfected cells; host or cells: HEK293T cells stably expressing G16Gust44
T1 sequence (Q8TE23 20-839): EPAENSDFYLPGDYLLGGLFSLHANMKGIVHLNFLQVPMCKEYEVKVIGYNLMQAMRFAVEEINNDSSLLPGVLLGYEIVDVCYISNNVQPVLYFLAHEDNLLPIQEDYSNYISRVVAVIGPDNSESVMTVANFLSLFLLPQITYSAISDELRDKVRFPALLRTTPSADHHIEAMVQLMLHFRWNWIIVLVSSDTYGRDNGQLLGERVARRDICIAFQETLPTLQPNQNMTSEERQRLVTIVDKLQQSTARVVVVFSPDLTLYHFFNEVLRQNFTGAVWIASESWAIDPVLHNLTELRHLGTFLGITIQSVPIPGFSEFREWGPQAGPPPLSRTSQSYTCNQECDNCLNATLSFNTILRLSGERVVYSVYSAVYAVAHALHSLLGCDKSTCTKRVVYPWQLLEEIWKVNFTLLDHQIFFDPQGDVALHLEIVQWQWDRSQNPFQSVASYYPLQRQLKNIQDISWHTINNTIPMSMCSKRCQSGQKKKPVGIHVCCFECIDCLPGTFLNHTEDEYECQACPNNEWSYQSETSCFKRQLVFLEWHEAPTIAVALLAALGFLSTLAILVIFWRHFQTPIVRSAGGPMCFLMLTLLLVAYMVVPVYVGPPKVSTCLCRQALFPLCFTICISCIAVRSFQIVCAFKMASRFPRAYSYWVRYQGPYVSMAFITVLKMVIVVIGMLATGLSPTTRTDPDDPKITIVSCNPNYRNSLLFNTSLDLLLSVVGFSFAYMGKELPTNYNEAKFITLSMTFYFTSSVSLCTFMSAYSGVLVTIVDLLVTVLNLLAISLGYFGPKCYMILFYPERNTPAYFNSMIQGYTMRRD
T1 sequence (Q7RTX0 21-852 S729A): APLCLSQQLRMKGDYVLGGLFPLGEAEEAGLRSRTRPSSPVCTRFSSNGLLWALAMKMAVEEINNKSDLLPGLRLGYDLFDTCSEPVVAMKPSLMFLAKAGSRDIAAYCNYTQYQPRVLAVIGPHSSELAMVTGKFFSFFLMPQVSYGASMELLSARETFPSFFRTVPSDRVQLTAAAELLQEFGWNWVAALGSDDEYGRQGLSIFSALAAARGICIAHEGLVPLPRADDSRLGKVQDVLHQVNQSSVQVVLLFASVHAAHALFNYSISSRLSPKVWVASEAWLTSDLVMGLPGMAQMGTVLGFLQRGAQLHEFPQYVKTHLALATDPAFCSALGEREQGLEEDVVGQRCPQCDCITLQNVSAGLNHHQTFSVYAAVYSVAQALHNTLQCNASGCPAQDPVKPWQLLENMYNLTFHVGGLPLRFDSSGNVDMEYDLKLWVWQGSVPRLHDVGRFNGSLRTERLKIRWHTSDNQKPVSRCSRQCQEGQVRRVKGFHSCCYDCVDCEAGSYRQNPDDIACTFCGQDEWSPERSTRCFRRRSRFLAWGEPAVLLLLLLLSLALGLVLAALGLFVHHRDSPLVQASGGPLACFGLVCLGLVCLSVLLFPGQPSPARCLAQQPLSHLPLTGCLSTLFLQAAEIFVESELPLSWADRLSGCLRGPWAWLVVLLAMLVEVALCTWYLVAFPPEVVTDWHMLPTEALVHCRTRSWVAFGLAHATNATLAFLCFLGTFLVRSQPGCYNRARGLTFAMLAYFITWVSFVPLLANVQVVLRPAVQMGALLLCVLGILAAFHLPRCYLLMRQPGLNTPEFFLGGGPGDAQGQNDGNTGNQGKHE
Outline: (§1)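 Calcium mobilization was measured by FLIPR in Fluo4-AM-loaded HEK293T cells coexpressing G16Gust44 with the tagged receptor pair. Signals had mock responses removed and were given as ΔF/F.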

[2] = target: T2, hTAS1R2 + hTAS1R3 S640A^3.32 (Homo sapiens, UniProt Q7RTX0+Q8TE23, S640A); assay: as above; format: cell-based; conditions: variant S640A^3.32; for Emax: read-out: maximal signal (% of wt)
T2 construct: expressed in transfected cells; host or cells: HEK293T cells stably expressing G16Gust44
T2 sequence (Q8TE23 20-839): T1 sequence (Q8TE23 20-839)
T2 sequence (Q7RTX0 21-852 S640A): T1 sequence (Q7RTX0 21-852 S729A) with S620A, A709S
Outline: as §1

EC50 [1] [µM] | Emax [1] [%] | EC50 [2] [µM] | Emax [2] [%] | SMILES
900 ± 400 | 72 ± 20 | 1400 ± 500 | 61 ± 40 | COC(=O)[C@H](Cc1ccccc1)NC(=O)[C@@H](N)CC(=O)O [aspartame] (HELM PEPTIDE1{D.F.[CO[*:1]]}$$$$V2.0)
200 ± 100 | 80 ± 16 | 800 ± 200 | 63 ± 18 | COc1ccc(CCC(=O)c2c(O)cc(O[C@@H]3O[C@H](CO)[C@@H](O)[C@H](O)[C@H]3O[C@@H]3O[C@@H](C)[C@H](O)[C@@H](O)[C@H]3O)cc2O)cc1O [NHDC, neohesperidin dihydrochalcone]
